Legend:
B. cinerea = assay: In-vitro mycelium growth inhibition on CaP-amended PDA; format: cell-based, Botrytis cinerea; conditions: six isolates, pH 6.0, 25° C. dark
Description: (§1) A 10% buffered (pH 6.0) stock solution in autoclaved de-ionized water was used to prepare working calcium propionate solutions. Initially, five concentrations of 0, 1, 5, 25, and 100 ppm were screened for determining the effect of calcium propionate on fungal mycelia. Higher concentrations of 300, 900, 2700, and 8100 ppm were also tested in mycelium growth inhibition assays to determine EC50 values for isolates sensitive and resistant to FRAC codes 1, 2, 7, 9, 11, 12, 13, and 17 (i.e., benzimidazoles, quinone outside inhibitors, dicarboxamides, succinate dehydrogenases, phenylpyrroles, demethylation inhibitor fungicides, and anilinopyrimidines respectively).
(§2) To prepare different concentrations, calculated amount of stock solution was mixed in autoclaved (121 C for 20 mins) potato dextrose agar (PDA) after the media cooled down to appropriate temperature. […] Mycelium growth diameter was measured using a vernier caliper just before the mycelium growth of two colonies in the control media plate overlapped. […] Mycelium inhibition rates were calculated and EC50 values were determined. Additionally, the fungistatic activity of calcium propionate was determined at 8000 mg/L (0.8%; pH 6.0) concentration, buffered at pH 6 with acetic acid. […] Mycelium growth was recorded every 24 h using a vernier caliper until fungal mycelia in control treatments reached the 90 mm in diameter petri dish rim.

M. fructicola = assay: as above; format: cell-based, Monilinia fructicola; conditions: six isolates, pH 6.0, 25° C. dark
Description: as §1, §2

A. alternata = assay: as above; format: cell-based, Alternaria alternata
Description: as §1, §2

C. siamense = assay: as above; format: cell-based, Colletotrichum siamense
Description: as §1, §2

[1] = test system: all four pathogens (B. cinerea, M. fructicola, A. alternata, C. siamense); assay: In-vitro mycelium growth inhibition, statements pooled over all four pathogens; format: cell-based
Description: as §1
To prepare different concentrations, calculated amount of stock solution was mixed in autoclaved (121 C for 20 mins) potato dextrose agar (PDA) after the media cooled down to appropriate temperature. Amended media with different CaP concentrations was poured in to 15×100 mm petri dishes (VWR International, LLC., Radnor, PA), and left to solidify. For mycelium growth, 5 mm plugs were obtained from the edges of freshly grown seven-day old cultures from all 24 isolates of different fungal genera including Alternaria sp., Botrytis sp., Colletotrichum sp., and Monilinia sp. (Table 1). Two culture plugs of each isolate were placed near opposite edges of individual CaP amended PDA media plates. The media plates with no CaP (0 ppm) served as control treatment. Inoculated plates were then incubated at 25° C. in dark for 7-10 days. Mycelium growth diameter was measured using a vernier caliper just before the mycelium growth of two colonies in the control media plate overlapped. […] Mycelium inhibition rates were calculated and EC50 values were determined. Additionally, the fungistatic activity of calcium propionate was determined at 8000 mg/L (0.8%; pH 6.0) concentration, buffered at pH 6 with acetic acid. […] Mycelium growth was recorded every 24 h using a vernier caliper until fungal mycelia in control treatments reached the 90 mm in diameter petri dish rim.

B. cinerea isolate PDRK3 = assay: Botrytis blight severity on harvested petunia flowers after spray application; format: in vivo, Botrytis cinerea
Description: (§3) Calcium propionate concentrations were prepared by adding appropriate amounts in de-ionized water and tested in four separate experiments. Spray applications at 1.25%, 2.5%, and 5% (pH 7.7 and buffered with acetic acid to pH 6.5) (first experiment) and 0.5%, 0.75%, and 1% buffered with acetic acid to pH 6.5 (second experiment) were made on harvested open petunia flowers. Separately, spray applications at 0.1%, 0.2%, 0.3%, (third experiment) 0.5%, 0.75%, and 1% (fourth experiment) buffered with acetic acid to pH 6.5 were made on harvested open petunia flowers. Approximately 24 hours after spray applications, the flowers were arranged in humid chambers maintaining relative humidity of 98-100% and inoculated by spraying spore suspension (10^4 spores/ml) of B. cinerea isolate PDRK3 (Bennett et al. 2019). Fungicide applications and spore suspensions were misted onto flowers until runoff to completely cover the flower using a 4 oz clear PET plastic bullet bottle with white mist sprayer (The Cary Company, Addison, IL). The petunia flowers were evaluated 72 h after inoculation to observe botrytis blight severity and phytotoxicity using ratings from 0 to 8 scale based on the area of infected corolla (0=no infection; 8=complete necrosis), modified from Bennett (2019). Pydiflumethophen+fludioxonil (sold under the trademark MIRAVIS™ PRIME; Syngenta, Raleigh, NC) was used as a commercial fungicide control along with a non-inoculated and an inoculated control. Ten flowers were evaluated per treatment and the entire experiment was repeated twice.

petunia flowers = assay: Phytotoxicity on harvested petunia flowers after spray application; format: in vivo, Petuniaxhybrida 'Dreams burgundy picotee'
Description: as §3

[2] = test system: Botrytis cinerea isolate S4GBR4O; assay: Botrytis blight severity on cut roses after submerging flower-head; format: in vivo
Description: (§4) Calcium propionate concentrations of 0.1%, 0.2%, 0.3%, 0.5%, 0.75%, 1% (pH 6.0), were prepared and tested against Botrytis blight on cut roses. Treatments were applied by submerging flower-head of 15 sec in the solutions of the treatments and gently moving the flowers up and down to allow the petals to open and help the product get in touch with the most internal petals. Then, the flowers were placed vertically in open PVC boxes over heavy-duty thermoformed trays (Greenhouse Megastore, Danville, IL) containing 3 L of water. The boxes and trays were placed inside open humid chambers for 24 h, then the flowers were sprayed with a Botrytis cinerea spore suspension at 10^5 spores/ml from the previously characterized isolate S4GBR4O (Muñoz et al., 2019). The humid chambers were closed, and data collection of disease severity was taken 3, 5, and 7 days after the inoculation. Relative humidity in the humid chambers was maintained in a range of 97-100% which was verified using a psychrometer (RH300, Extech Instruments, Nashua, NH, US). Observational data on phytotoxicity symptoms were also collected. Additionally, an inoculated control, Pydiflumethophen+Fludioxonil (sold under the trademark MIRAVIS™ PRIME; Syngenta, Raleigh, NC), and a non-inoculated treatment were included in the evaluation. The experiment with CaP treatments of 0.5%, 0.75%, and 1% (pH 6.0) were conducted only once due to phytotoxicity issues. All lower dose treatments were performed twice.

cut roses = assay: Phytotoxicity on cut roses after submerging flower-head; format: in vivo, cultivar Orange Crush
Description: as §4

[3] = 8000 ppm (0.8%; pH 6.0), after 2-4 days, growth rate reaching untreated control
[4] = six isolates, amended PDA, pH 6.0, 25° C. dark

CCC(=O)[O-].CCC(=O)[O-].[Ca+2] [CaP, calcium propionate]
mean EC50 mycelium growth (B. cinerea): 527.77 µg/mL
mean EC50 mycelium growth (M. fructicola): 618.25 µg/mL
mycelium growth recovery after initial inhibition (A. alternata; [3]): recovered quickly
mean EC50 mycelium growth (A. alternata; [4]): 1354.87 µg/mL
mycelium growth recovery after initial inhibition (C. siamense; [3]): recovered quickly
mean EC50 mycelium growth (C. siamense; [4]): 1310.34 µg/mL
mycelium growth inhibition ([1]; 8000 ppm (0.8%; pH 6.0), after 2-4 days of incubation): ~100%
maximum inhibition of fungal mycelium growth ([1]; CaP 1, 5, 25, and 100 mg/L, preliminary experiments): below 20%
mean EC50 of fungicide-sensitive versus fungicide-resistant isolates ([1]; isolates sensitive vs resistant to commonly used FRAC groups): not significantly different
control efficacy with increase in concentration (B. cinerea isolate PDRK3; 0.75% to 1% (fourth experiment) and 0.1% to 0.3% (third experiment), pH 6.5): did not correspond to an increase in control efficacy
disease severity (B. cinerea isolate PDRK3; experiment three, all CaP treatments 0.1%, 0.2%, 0.3% (pH 6.5)): reduced disease severity
botrytis blight control compared to the 0.5% treatment (B. cinerea isolate PDRK3; experiment two, 0.75% and 1.0% CaP (pH 6.5)): significantly better control
disease severity (B. cinerea isolate PDRK3; experiment two, all CaP treatments 0.5%, 0.75%, 1% (pH 6.5)): reduced disease severity
botrytis blight control, lower pH vs higher pH treatment (B. cinerea isolate PDRK3; first experiment, 1.25% CaP, pH 6.5 compared to pH 7.7): significantly better control
control efficacy with increase in concentration (B. cinerea isolate PDRK3; first experiment, increase from 1.25% to 5%): did not correspond to an increase in control efficacy
botrytis blight severity vs inoculated control (B. cinerea isolate PDRK3; first experiment, spray 1.25%, 2.5%, and 5% (pH 6.5 and 7.7), 72 h after inoculation): reduced botrytis blight compared to the inoculated control
botrytis blight severity vs inoculated control (B. cinerea isolate PDRK3; third and fourth experiments, all CaP concentrations 0.1%-1% at pH 6.5): reduced botrytis blight compared to the inoculated control
phytotoxicity (petunia flowers; experiment three, 0.1% (pH 6.5)): barely noticeable
phytotoxicity, difference to untreated control (petunia flowers; experiment three, 0.1% CaP (pH 6.5)): no significant difference
phytotoxicity (petunia flowers; experiment three, lower concentrations 0.1%-0.3% (pH 6.5)): very little to no phytotoxicity
phytotoxicity (petunia flowers; experiment two, 0.5% (pH 6.5)): barely noticeable
phytotoxicity (petunia flowers; experiment two, 0.75% and 1% (pH 6.5)): noticeable phytotoxicity
phytotoxicity (bleaching of petunia flower tissue) (petunia flowers; first experiment, 1.25%, 2.5%, and 5% CaP (pH 6.5 and 7.7)): Evidence of phytotoxicity was observed
phytotoxicity (bleaching of petunia flower tissue) (petunia flowers; fourth experiment, 0.5%, 0.75%, and 1% CaP (pH 6.5), increased with increasing concentrations): Evidence of phytotoxicity was observed
botrytis blight severity, difference to inoculated control ([2]; first rose experiment, 0.5%, 0.75%, and 1% CaP (pH 6.0)): No statistical differences
efficacy against botrytis blight compared to grower standard ([2]; second rose experiment, 0.1% (pH 6.0) CaP): as effective as the grower standard Miravis Prime
efficacy against botrytis blight compared to 0.3% CaP ([2]; second rose experiment, 0.1% CaP (pH 6.0)): significantly higher efficacy
phytotoxicity (cut roses; 0.1% CaP (pH 6.0)): no to barely noticeable phytotoxicity
phytotoxicity symptoms (cut roses; 0.3% and 0.2% CaP (pH 6.0)): minor symptoms of phytotoxicity
size of phytotoxicity spots (cut roses; 0.3% and 0.2% CaP (pH 6.0)): 1-2 mm
phytotoxicity symptoms (cut roses; 0.5% CaP (pH 6.0) and higher, rounded areas in outermost petals, discolored edges): phytotoxicity symptoms were observed

Reference: patent publication US20240180153A1, “METHODS FOR MANAGING DISEASES IN CUT FLOWERS” (Niacet Corporation, priority 2022, published 2024)
